The text below walks through data of patent US11945779B2, “Inhibitors of cancer metastasis through inhibiting migration and invasion of cancer cells” (VSpharmtech, priority 2018, dated 2024).

Test [1] deals with pancreatic cancer cell line AsPc-1. The experiment in a line: Trans-well cancer cell migration inhibition, AsPc-1. Type of test: cell-based. Conditions: Homo sapiens, ASPC1; for IC50: Pancreatic cancer cell line AsPc-1, read-out: Concentration inhibiting migration of cancer cells by 50% (IC50 value). Here is the method: (§1) In order to analyze cancer cell migration inhibitory activity of CG-608, CG-609 or CG-618 prepared in Examples 1, 2, or 9, cell migration inhibitory activity was measured using a trans-well by targeting a colon cancer cell line DLD-1 (ATCC-CCL-221), pancreatic cancer cell lines AsPc-1 (ATCC-CCL-1682). CFPAC-1 (ATCC-CCL-1918). Panc-1 (ATCC-CCL-1469), and Miapaca-2 (ATCC-CCL-1420), a skin cancer cell line A375-P (ATCC-CCL-3224), lung cancer cell lines HCC-827 (ATCC-CCL-2868), A549 (ATCC-CCL-185), and NCI-H460 (ATCC-CCL-177), a prostate cancer cell line DU145 (ATCC-HTB-81), a stomach cancer cell line NuGC-3 (JCRB0822), and an ovarian cancer cell line SKOV-3 (ATCC-HTB-77).
(§2) First, the number of DLD-1 cells was measured using a hemocytometer in an RPMI medium without FBS. Thereafter, the trans-well was placed on a 24-well plate and 8×10^4 cells/200 mL of cells were added. In an empty space with the trans-well on the well plate, 500 mL of an RPM medium having 10% FBS containing CG-608, CG-609, or CG-618 was added and cultured in a CO2 incubator at 37° C. for 16 hours. After culture, […] of crystal violet (5 mg/mL of 20% […] was added to each well of the 24-well plate and the trans-well was dyed at room temperature for 30 minutes. The dyed trans-well was washed with PBS and non-migrated cells were wiped off with cotton swabs. The prepared sample was photographed with an inverted microscope mounted with a digital camera (TE 300, Nikon. Japan) and then the number of migrated cells was counted. The degree of inhibiting cell migration was calculated by Equation 1 for a group treated with the sample compared to a control group (DMSO).
In Equation 1, ‘the number of migrated cells treated with sample’ refers to the number of migrated cells measured by treating CG-608 or CG-618 of Example 1, and ‘the number of migrated cells of a control sample’ refers to the number of migrated cells measured by treating only 1% dimethyl sulfoxide (DMSO) instead of the compound.

Test [2] deals with lung cancer cells A549. The experiment in a line: Trans-well cancer cell migration inhibition, A549. The test is classed as cell-based. Conditions: A549, concentration not given, FIG. 3. The protocol: as §1
as §2, with “Thereafter, the trans-well was placed on a 24-well plate and 8×10^4 cells/200 mL of cells were added. In an empty space with the trans-well on the well plate, 500 mL of an RPM medium having 10% FBS containing CG-608, CG-609, or CG-618 was added and cultured in a CO2 incubator at 37° C. for 16 hours.” left out, “(DMSO). […]” for “(DMSO).”

In test [3] the test system is colon cancer cell line DLD-1. In words: Cytotoxicity / proliferation analysis (WST-1), DLD-1. The test is classed as cell-based, human. Conditions: DLD-1, FIG. 8. The protocol: In order to verify cytotoxicity of CG-608 to CG-610 and CG-613 to CG-618 prepared in Examples 1 to 9, human colon cancer cell line DLD-1 cells (ATCC-CCL-221), pancreatic cancer cell line AsPc-1 cells (ATCC-CRL-1682), and normal cells MCF10A (ATCC-CRL-10317) were cultured in an RPMI medium containing 10% bovine fetal serum (FBS) while maintaining 37° C. and 5% CO2, and then the cells were detached using a 0.05% trypsin-EDTA. 4×10^3 cells calculated by a hematocytometer were inoculated in each well of a 96-well plate containing a 10% FBS containing medium and cultured in a 37° C. incubator containing 5% C2.
After 24 hours, the medium of each well was exchanged to a new medium containing a control group (0.1% DMSO) and CG-609 prepared in Example 1 or CG-618 prepared in Example 9 as a representative benproperine derivative at concentrations of 1 μM, 5 μM, and 10 μM. Thereafter, the cells were cultured in an incubator at 37° C. and 5% CO2 for 48 hours. Thereafter, […] of WST-1 (Roche) was added to each well and cultured for 2 hours, and then the absorbance was measured at 450 nm using an ELISA reader (Bio-Rad).

Test [4] concerns colon cancer cell line DLD-1. In words: Real-time single cell migration imaging (HoloMonitor M4), DLD-1. The test is classed as cell-based, human. Conditions: DLD-1, 24 hours, FIG. 7. Here is the method: An effect of a drug on migration of single cells was confirmed using HoloMonitor M4 (Phase Holographic Imaging), real-time cell migration imaging and analysis equipment. All experiments were performed within a 37° C. cell incubator to analyze cell migration while cells were alive for a long time. To prevent water vapor generated during cell imaging for a long time from obstructing the imaging, the experiment was conducted by dividing cells in an m-slide microcopy chamber (Ibidi). In order to analyze migration of single cells, cells (2.5×10^5 cells/mL) to be analyzed were divided to the m-slide microscopy chamber by 0.2 mL and cultured for more than 12 hours. The cells were sufficiently attached to its original shape and then treated with the drug, and a position to be analyzed was specified, and then the cell migration was measured in real time.
The cell migration was measured for 24 hours at five-minute intervals, and migration of 25 cells per group was analyzed. Using the HoloMonitor tracking software, a total distance migrated by the cells during the time measured, a linear distance from the starting point to the arrival point, a rate of migration, and a direction were quantitatively analyzed, and the migration of single cells was visualized with a Wind-Rose plot (FIG. 7).

Test [5] concerns human pancreatic cancer cell line AsPc-1. The experiment in a line: Lamellipodia formation inhibition (confocal microscope), AsPc-1. The test is classed as cell-based. Conditions: AsPc-1, 6 hours, FIG. 9. The protocol: (§3) A human colon cancer cell line DLD-1, a human pancreatic cancer cell line AsPc-1, a human melanoma cell line A375P, and normal cells MCF10A were each cultured to 1×10^5 cell density on a 35 mm high-m dish plate (ibid GmbH). The cells attached to the plate were washed with phosphate buffered saline (PBS) and then treated with DMSO or CG-618 dissolved in DMSO for 6 hours. After removing the cell culture medium from the plate, the plate was washed two times with PBS and treated with 4% paraformaldehyde dissolved in PBS at room temperature for 10 minutes to immobilize the cells. The plate was washed with PBS once and then treated with 0.2% Triton X-100 at room temperature for 10 minutes to enhance cell permeability. The plate was washed with PBS and treated with 1% BSA dissolved in PBS at room temperature for 1 hour to block non-specific bonds. In order to check the distribution in cells of filament actin (F-actin), phalloidin bound with Alexa Fluor 488, which was specifically bound with F-actin, was treated at room temperature for 15 minutes. The plate was washed with PBS three times and then treated with 2 mg/mL 4′,6′-diamidino-2-phenylindole (DAPAI) dissolved in PBS for two minutes at room temperature to dye the nucleus. The plate was washed with PBS three times and filled with 1 mL PBS. […] The obtained images were analyzed by an analysis program (LSM Version 3.2 software).

The subject of test [6] is human melanoma cell line A375P. The experiment in a line: Lamellipodia formation inhibition (confocal microscope), A375P. Type of test: cell-based. The settings on record: A375-p, 6 hours, FIG. 9. The protocol: as §3
The subject of test [7] is normal cells MCF10A. In words: Lamellipodia formation (confocal microscope), MCF10A. Type of test: cell-based. The settings on record: normal cell line MCF-10A, 6 hours, FIG. 9. The protocol: as §3

Regarding `C[C@H](COc1ccccc1Cc1ccccc1)N1CCCC[C@@H]1C` [CG-609, (S)-1-((R)-1-(2-benzylphenoxy)propan-2-yl)-2-methylpiperidine], in test [1] (AsPc-1, 1 μM, FIG. 3), the inhibition at 1 µM is not below 50%. The IC50 in test [1] stood at 0.11 µM. In test [2], the “Inhibition of cell migration” value is not below 50%. The “Growth of cancer cells” value in test [3] is recorded as “did not affect the growth”.
In the case of `CC1CCCCN1C(C)COc1ccccc1Cc1ccccc1` (racemic) [CG-618, 1-(1-(2-benzylphenoxy)propan-2-yl)-2-methylpiperidine], in test [1], the IC50 is 0.7 µM. In addition, the “Growth of cancer cells” value in test [3] is recorded as “did not affect the growth”. For the same molecule, the “Migration of single cancer cells (real-time imaging)” value in test [4] is on record as “strongly inhibited”. Moreover, the Formation of lamellipodia result in test [5] was “inhibits formation of lamellipodia”; in test [6] it was “inhibits formation of lamellipodia”; in test [7], “has no effect”.
